Legend:
[1] = target: human EGFR (native sequence) (Homo sapiens, UniProt P00533); assay: Kinase inhibition, human EGFR (native sequence); assay type: biochemical; conditions: 10 μM ATP; 10 pt curves, 3 μM top concentration (singlicates)
Protocol: (§1) Kinase inhibitory activity of the compounds was measured against human EGFR (native sequence) and against EGFR bearing the L858R mution and the L858R/T790M double mutation (EGFR, L858R, and L858R/T790M, respectively in Table 1). Additional assays can be conducted with EGFR deletion mutants such as delE746-A750 with or without the additional T790M mutation. Assay conditions included 10 pt curves with 3 μM top concentration (singlicates) and 10 μM ATP.

[2] = test system: BAF3 EGFR L858R-T790M PURO POOL; assay: Cell proliferation (MTT), BAF3 EGFR L858R-T790M; assay type: cell-based; conditions: Ba/F3 EGFR
Protocol: (§2) We also assessed the antiproliferative activity of compounds of Formula (I) against BaF3 cells expressing the target EGFR mutations or control (i.e., cell lines expressing wildtype EGFR). Assays were conducted using MTT.

[3] = target: EGFR bearing the L858R mution (Homo sapiens, UniProt P00533, L858R); assay: Kinase inhibition, EGFR L858R; assay type: biochemical; conditions: 10 μM ATP; 10 pt curves, 3 μM top concentration (singlicates)
Chain of EGFR bearing the L858R mution (P00533 25-1210 L858R): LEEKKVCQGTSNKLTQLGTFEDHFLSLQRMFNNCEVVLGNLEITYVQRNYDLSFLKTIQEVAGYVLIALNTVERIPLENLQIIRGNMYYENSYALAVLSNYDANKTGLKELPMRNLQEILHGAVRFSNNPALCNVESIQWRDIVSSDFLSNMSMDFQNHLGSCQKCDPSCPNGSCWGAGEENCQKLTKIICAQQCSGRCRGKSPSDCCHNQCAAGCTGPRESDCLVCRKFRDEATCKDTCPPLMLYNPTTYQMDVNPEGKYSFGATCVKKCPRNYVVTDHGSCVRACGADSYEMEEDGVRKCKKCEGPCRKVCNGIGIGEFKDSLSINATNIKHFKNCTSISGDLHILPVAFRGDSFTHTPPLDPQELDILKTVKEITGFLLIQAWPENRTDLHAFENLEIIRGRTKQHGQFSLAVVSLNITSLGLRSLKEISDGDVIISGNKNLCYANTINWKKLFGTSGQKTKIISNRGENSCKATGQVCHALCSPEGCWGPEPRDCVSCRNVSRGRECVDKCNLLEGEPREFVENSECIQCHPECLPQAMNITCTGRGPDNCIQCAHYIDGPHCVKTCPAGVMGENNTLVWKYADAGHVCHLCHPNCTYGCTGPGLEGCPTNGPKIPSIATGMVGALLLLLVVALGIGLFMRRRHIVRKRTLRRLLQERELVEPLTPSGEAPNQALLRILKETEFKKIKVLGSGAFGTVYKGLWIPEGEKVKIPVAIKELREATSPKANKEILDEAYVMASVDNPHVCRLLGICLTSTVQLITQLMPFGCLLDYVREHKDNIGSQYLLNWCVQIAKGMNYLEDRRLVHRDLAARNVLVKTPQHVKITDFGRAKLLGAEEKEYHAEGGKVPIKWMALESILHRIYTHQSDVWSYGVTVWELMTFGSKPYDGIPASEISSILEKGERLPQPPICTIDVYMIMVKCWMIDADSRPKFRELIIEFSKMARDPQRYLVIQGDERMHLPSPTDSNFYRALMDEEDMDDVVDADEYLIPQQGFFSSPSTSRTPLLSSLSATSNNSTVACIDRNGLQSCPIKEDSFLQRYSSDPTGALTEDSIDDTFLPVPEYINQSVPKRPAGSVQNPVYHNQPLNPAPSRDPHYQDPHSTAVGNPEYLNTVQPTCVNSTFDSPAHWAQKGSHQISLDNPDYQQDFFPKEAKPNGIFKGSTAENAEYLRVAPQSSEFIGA
Protocol: as §1

BAF3 PARENTAL = assay: Cell proliferation (MTT), BAF3 parental; assay type: cell-based; conditions: Mus musculus
Protocol: as §2

[4] = target: BAF3 EGFR DEL T790M PURO POOL (Homo sapiens, UniProt P00533, DEL746-750/T790M, cells depend on it); assay: Cell proliferation (MTT), BAF3 EGFR DEL T790M; assay type: cell-based
Chain of BAF3 EGFR DEL T790M PURO POOL (P00533 with tags, fused parts or gaps DEL746-750/T790M): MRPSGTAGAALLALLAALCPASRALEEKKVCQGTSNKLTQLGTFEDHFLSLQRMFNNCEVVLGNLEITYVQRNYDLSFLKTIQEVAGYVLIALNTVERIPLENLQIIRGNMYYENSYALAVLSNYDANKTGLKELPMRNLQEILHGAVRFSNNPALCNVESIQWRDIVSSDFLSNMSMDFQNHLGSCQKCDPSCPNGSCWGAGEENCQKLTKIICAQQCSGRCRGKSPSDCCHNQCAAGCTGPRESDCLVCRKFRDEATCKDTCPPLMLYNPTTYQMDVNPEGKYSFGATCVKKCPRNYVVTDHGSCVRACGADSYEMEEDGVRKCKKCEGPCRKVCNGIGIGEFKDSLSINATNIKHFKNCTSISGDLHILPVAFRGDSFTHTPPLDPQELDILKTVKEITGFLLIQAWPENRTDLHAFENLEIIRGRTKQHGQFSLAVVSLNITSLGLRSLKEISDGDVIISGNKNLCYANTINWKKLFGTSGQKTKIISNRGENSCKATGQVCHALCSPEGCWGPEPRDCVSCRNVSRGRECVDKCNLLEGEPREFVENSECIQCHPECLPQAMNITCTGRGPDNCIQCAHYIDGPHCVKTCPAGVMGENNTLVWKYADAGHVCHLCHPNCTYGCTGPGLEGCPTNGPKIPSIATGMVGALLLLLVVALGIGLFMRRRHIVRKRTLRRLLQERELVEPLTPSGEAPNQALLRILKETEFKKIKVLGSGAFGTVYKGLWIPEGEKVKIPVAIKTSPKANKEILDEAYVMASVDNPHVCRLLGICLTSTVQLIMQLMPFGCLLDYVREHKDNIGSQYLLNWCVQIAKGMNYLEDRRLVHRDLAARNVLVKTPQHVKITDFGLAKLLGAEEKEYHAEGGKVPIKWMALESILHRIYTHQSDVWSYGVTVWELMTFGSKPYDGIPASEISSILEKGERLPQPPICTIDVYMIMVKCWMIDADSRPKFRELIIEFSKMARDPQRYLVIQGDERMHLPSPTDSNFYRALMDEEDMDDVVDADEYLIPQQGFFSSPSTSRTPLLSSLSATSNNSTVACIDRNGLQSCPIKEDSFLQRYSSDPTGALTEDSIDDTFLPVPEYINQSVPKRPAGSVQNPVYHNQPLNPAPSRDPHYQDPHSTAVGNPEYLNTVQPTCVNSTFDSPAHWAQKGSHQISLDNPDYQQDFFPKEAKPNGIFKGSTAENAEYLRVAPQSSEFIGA
Protocol: as §2

[5] = target: EGFR bearing the L858R/T790M double mutation (Homo sapiens, UniProt P00533, L858R/T790M); assay: Kinase inhibition, EGFR L858R/T790M; assay type: biochemical; conditions: 10 μM ATP; 10 pt curves, 3 μM top concentration (singlicates)
Chain of EGFR bearing the L858R/T790M double mutation (P00533 25-1210 T790M/L858R): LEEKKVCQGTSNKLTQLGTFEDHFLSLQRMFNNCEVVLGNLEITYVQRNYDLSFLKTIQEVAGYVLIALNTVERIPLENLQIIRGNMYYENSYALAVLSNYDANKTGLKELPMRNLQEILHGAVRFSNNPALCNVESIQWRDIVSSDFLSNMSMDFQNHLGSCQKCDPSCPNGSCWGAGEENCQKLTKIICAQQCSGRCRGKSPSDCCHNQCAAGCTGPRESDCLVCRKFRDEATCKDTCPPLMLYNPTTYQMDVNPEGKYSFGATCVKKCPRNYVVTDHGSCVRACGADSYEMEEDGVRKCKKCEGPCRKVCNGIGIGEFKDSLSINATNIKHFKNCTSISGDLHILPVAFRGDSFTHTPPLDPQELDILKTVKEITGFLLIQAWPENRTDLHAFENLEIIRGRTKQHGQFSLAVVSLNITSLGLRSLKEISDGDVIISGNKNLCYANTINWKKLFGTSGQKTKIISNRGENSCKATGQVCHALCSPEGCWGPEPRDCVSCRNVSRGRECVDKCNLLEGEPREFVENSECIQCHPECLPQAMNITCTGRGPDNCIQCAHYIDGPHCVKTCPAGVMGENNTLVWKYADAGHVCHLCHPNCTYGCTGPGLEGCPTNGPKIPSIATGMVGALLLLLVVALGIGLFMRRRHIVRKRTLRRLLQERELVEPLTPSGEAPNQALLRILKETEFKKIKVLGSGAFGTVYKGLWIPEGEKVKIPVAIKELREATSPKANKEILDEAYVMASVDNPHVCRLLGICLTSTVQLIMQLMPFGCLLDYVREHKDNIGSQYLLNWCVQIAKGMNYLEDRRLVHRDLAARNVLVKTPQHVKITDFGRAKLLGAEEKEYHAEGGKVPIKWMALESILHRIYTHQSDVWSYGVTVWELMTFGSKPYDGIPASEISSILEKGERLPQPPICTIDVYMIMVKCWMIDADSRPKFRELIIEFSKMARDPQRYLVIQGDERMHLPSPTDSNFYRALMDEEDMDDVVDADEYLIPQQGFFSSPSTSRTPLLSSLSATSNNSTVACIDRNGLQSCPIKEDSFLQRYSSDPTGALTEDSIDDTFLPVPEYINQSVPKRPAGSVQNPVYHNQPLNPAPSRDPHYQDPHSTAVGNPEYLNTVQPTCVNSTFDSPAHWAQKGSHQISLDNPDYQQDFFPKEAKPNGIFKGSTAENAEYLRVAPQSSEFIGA
Protocol: as §1

Chain of human EGFR (native sequence) (P00533 25-1210): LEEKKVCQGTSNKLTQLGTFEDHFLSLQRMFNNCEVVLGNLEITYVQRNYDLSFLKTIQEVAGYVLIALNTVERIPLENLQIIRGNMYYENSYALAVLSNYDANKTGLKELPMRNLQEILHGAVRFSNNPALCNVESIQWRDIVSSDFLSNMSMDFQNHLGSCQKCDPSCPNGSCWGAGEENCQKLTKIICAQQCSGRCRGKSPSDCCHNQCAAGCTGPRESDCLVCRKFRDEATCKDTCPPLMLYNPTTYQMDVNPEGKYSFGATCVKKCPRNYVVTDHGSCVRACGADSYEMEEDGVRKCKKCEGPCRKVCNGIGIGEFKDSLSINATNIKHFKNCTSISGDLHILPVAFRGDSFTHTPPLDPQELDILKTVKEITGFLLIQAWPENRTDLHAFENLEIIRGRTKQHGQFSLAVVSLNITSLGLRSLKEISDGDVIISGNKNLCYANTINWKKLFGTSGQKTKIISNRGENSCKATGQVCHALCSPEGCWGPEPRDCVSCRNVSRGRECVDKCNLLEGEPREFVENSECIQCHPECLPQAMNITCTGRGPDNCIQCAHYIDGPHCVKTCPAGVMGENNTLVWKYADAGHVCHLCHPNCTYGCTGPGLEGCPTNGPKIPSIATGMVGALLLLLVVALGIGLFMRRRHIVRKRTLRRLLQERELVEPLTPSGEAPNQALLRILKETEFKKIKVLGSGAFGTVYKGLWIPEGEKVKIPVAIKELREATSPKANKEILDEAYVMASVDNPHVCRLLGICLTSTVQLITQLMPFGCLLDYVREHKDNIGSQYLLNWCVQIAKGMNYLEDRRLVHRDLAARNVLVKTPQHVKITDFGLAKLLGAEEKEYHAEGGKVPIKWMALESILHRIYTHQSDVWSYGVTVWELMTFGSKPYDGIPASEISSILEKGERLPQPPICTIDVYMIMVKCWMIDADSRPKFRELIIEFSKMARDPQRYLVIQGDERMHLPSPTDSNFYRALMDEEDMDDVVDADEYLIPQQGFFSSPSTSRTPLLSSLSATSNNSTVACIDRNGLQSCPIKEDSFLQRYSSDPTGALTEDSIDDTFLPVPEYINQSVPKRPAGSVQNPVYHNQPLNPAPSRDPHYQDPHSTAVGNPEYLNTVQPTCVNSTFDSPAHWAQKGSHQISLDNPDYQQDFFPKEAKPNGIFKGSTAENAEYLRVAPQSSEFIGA

Structure (SMILES) | IC50 [1] | IC50 [2] | IC50 [3] | IC50 [4] | IC50 [5] | IC50 (BAF3 PARENTAL)
C=CC(=O)Nc1cc(Nc2ncc(Cl)c(Nc3ccccc3P(C)(C)=O)n2)c(OC)cc1N1CCN(C)CC1 [Example 18, N-(5-((5-chloro-4-((2-(dimethylphosphoryl)phenyl)amino)pyrimidin-2-yl)amino)-4-methoxy-2-(4-methylpiperazin-1-yl)phenyl)acrylamide] | 51 to 100 nM | 51 to 100 nM | < 51 nM | < 51 nM | < 51 nM | ≥ 250 nM
C=CC(=O)N(CCCN(C)C)c1ccc(OC)c(Nc2ncc(Cl)c(Nc3ccccc3P(C)(C)=O)n2)c1 [Example 21, N-(3-((5-chloro-4-((2-(dimethylphosphoryl)phenyl)amino)pyrimidin-2-yl)amino)-4-methoxyphenyl)-N-(3-(dimethylamino)propyl)acrylamide] | ≥ 250 nM | ≥ 250 nM | 101 to 250 nM | 101 to 250 nM | 51 to 100 nM | ≥ 250 nM
C=CC(=O)Nc1cc(Nc2ncc(Cl)c(Nc3ccccc3P(C)(C)=O)n2)c(OC)cc1OCCOC [Example 25, N-(5-((5-chloro-4-((2-(dimethylphosphoryl)phenyl)amino)pyrimidin-2-yl)amino)-4-methoxy-2-(2-methoxyethoxy)phenyl)acrylamide] | ≥ 250 nM | 51 to 100 nM | < 51 nM | < 51 nM | < 51 nM | ≥ 250 nM
C=CC(=O)N(C(=O)C=C)c1ccc(OC)c(Nc2ncc(Cl)c(Nc3ccccc3P(C)(C)=O)n2)c1 [Example 26, N-acryloyl-N-(3-((5-chloro-4-((2-(dimethylphosphoryl)phenyl)amino)pyrimidin-2-yl)amino)-4-methoxyphenyl)acrylamide] | ≥ 250 nM | 51 to 100 nM | 101 to 250 nM | < 51 nM | 101 to 250 nM | ≥ 250 nM

The next lines start with results.

IC50 [1] | IC50 [2] | IC50 [3] | IC50 [4] | IC50 [5] | Structure (SMILES) | IC50 (BAF3 PARENTAL)
< 51 nM | < 51 nM | < 51 nM | < 51 nM | < 51 nM | C=CC(=O)Nc1cc(Nc2ncc(Cl)c(Nc3ccccc3P(C)(C)=O)n2)c(OC)cc1OCCN(C)C [Example 19, N-(5-((5-chloro-4-((2-(dimethylphosphoryl)phenyl)amino)pyrimidin-2-yl)amino)-2-(2-(dimethylamino)ethoxy)-4-methoxyphenyl)acrylamide] | ≥ 250 nM
≥ 250 nM | 101 to 250 nM | < 51 nM | < 51 nM | < 51 nM | C=CC(=O)Nc1cc(Nc2ncc(Cl)c(Nc3ccccc3P(C)(C)=O)n2)c(OC)cc1OC [Example 20, N-(5-((5-chloro-4-((2-(dimethylphosphoryl)phenyl)amino)pyrimidin-2-yl)amino)-2,4-dimethoxyphenyl)acrylamide] | ≥ 250 nM
< 51 nM | < 51 nM | < 51 nM | < 51 nM | < 51 nM | C=CC(=O)Nc1cc(Nc2ncc(Cl)c(Nc3ccccc3P(C)(C)=O)n2)c(OC)cc1F [Example 22] | ≥ 250 nM
≥ 250 nM | 101 to 250 nM | < 51 nM | ≥ 250 nM | < 51 nM | C=CC(=O)Nc1cc(Nc2ncc(Cl)c(Nc3ccccc3P(C)(C)=O)n2)c(OC)cc1OC1CCOC1 (stereo not drawn) [Example 24, N-(5-((5-chloro-4-((2-(dimethylphosphoryl)phenyl)amino)pyrimidin-2-yl)amino)-4-methoxy-2-((tetrahydrofuran-3-yl)oxy)phenyl)acrylamide] | ≥ 250 nM
< 51 nM | < 51 nM | < 51 nM | < 51 nM | < 51 nM | C=CC(=O)Nc1cc(Nc2ncc(Cl)c(Nc3ccccc3P(C)(C)=O)n2)c(OC)cc1OC(COC)CN(CC)CC (stereo not drawn) [Example 27] | ≥ 250 nM

— patent US9834518B2, “Compounds for inhibiting cell proliferation in EGFR-driven cancers” (ARIAD Pharmaceuticals, Inc., priority 2011, dated 2017)
